Data from ChEMBL document CHEMBL4138170, “Synthesis and biological evaluation of novel alkylated polyamine analogues as potential anticancer agents” (Eur J Med Chem, 2018).

How the values were obtained:
Assay type in all cases: functional, cell-based
HCT-116 = test: Antiproliferative activity against human HCT116 cells after 48 hrs by MTT assay; conditions: HCT-116, 48 h
SMMC-7721 = test: Antiproliferative activity against human SMMC7721 cells after 48 hrs by MTT assay; conditions: SMMC-7721, 48 h
HepG2 = test: Antiproliferative activity against human HepG2 cells after 48 hrs by MTT assay; conditions: HepG2, 48 h
K562 = test: Antiproliferative activity against human K562 cells after 48 hrs by MTT assay; conditions: K562, 48 h

IC50 (HCT-116) | IC50 (SMMC-7721) | IC50 (HepG2) | IC50 (K562) | SMILES
18.3 µM | 29.9 µM | 25.4 µM | 17.2 µM | O=C1c2cccc3cccc(c23)C(=O)N1CCCNCCCCNCCCNC1CCCCC1
20.4 µM | 18.8 µM | 75.3 µM | 32.4 µM | CCCNCCCCNCCCCNCCCCN1C(=O)c2cccc3cccc(c23)C1=O
6.73 µM | 7.71 µM | 6.77 µM | 6.08 µM | CCNCCCNCCCNCCCN1C(=O)c2cccc3cccc(c23)C1=O
14.2 µM | 14.3 µM | 37 µM | 30.7 µM | O=C1c2cccc3cccc(c23)C(=O)N1CCCCNCCCCNCCCCNC1CCCCC1
15.1 µM | 12 µM | 9.68 µM | 8.55 µM | O=C1c2cccc3cccc(c23)C(=O)N1CCCCNCCCCNCCCCNC1CC1
